Experimental data as given in paper PMC7614683, “A small molecule PI3Kα activator for cardioprotection and neuroregeneration” (Nature, 2023).
Read-outs that look alike come from different tables or passages of the source.

Assays:
Test in all cases: SelectScreen Z-LYTE kinase activity assay (SI Table 6)
Assay type in all cases: biochemical
[1] = molecular target: protein kinases of the Z-LYTE panel (Homo sapiens, UniProt O75116)
Method in brief: (§1)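 A counterscreen of 133 protein and 7 lipid kinases was run with one compound concentration, 1 μM 1938, in SelectScreen Adapta, Lantha or Z-LYTE assays.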

[2] = molecular target: protein kinases of the Z-LYTE panel (Homo sapiens, UniProt O96013)
Method in brief: as §1

[3] = molecular target: protein kinases of the Z-LYTE panel (Homo sapiens, UniProt P06213)
Method in brief: as §1

[4] = molecular target: protein kinases of the Z-LYTE panel (Homo sapiens, UniProt P07948)
Method in brief: as §1

[5] = molecular target: protein kinases of the Z-LYTE panel (Homo sapiens, UniProt P10721)
Method in brief: as §1

[6] = molecular target: protein kinases of the Z-LYTE panel (Homo sapiens, UniProt P15056); conditions: BRAF, 1000 nM, [ATP] 100 μM
Method in brief: as §1

[7] = molecular target: protein kinases of the Z-LYTE panel (Homo sapiens, UniProt P49840)
Method in brief: as §1

[8] = molecular target: protein kinases of the Z-LYTE panel (Homo sapiens, UniProt P51451)
Method in brief: as §1

[9] = molecular target: T1, protein kinases of the Z-LYTE panel (Homo sapiens, UniProt P51813)
T1 sequence (P51813 1-675): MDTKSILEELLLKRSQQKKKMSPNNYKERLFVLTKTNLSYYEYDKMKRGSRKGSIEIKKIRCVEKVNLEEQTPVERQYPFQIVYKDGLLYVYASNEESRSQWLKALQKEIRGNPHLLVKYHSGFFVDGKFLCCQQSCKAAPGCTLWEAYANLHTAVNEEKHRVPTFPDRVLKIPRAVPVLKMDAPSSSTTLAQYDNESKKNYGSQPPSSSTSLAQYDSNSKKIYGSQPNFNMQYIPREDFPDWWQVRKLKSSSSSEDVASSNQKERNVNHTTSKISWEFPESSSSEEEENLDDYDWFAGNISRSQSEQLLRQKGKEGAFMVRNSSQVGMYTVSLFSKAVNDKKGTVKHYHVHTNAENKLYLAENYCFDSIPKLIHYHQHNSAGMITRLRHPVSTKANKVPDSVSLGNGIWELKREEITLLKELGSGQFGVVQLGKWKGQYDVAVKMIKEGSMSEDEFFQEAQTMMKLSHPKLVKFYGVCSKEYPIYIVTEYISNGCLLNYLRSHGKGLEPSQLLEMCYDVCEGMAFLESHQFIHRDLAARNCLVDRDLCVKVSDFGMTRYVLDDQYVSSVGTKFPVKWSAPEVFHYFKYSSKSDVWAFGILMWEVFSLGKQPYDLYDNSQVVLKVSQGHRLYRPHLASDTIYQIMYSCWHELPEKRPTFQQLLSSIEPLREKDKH
Method in brief: as §1

[10] = molecular target: protein kinases of the Z-LYTE panel (Homo sapiens, UniProt Q04759)
Method in brief: as §1

[11] = molecular target: protein kinases of the Z-LYTE panel (Homo sapiens, UniProt Q04912)
Method in brief: as §1

[12] = molecular target: protein kinases of the Z-LYTE panel (Homo sapiens, UniProt Q16620)
Method in brief: as §1

[13] = molecular target: protein kinases of the Z-LYTE panel (Homo sapiens, UniProt Q9P1W9)
Method in brief: as §1

Chain of protein kinases of the Z-LYTE panel (Homo sapiens, UniProt P51451) (P51451 whole entry): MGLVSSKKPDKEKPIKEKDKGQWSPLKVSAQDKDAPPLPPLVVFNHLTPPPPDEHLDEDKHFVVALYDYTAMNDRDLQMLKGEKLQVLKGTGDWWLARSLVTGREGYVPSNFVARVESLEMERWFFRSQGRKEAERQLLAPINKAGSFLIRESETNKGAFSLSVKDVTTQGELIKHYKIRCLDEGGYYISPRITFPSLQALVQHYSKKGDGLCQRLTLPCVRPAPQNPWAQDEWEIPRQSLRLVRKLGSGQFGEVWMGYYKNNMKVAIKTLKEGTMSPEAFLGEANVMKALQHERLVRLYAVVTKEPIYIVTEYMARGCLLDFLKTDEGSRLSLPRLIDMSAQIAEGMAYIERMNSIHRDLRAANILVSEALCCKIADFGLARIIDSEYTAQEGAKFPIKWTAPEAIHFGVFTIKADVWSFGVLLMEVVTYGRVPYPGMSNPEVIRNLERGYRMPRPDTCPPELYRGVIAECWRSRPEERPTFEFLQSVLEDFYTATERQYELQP
Chain of protein kinases of the Z-LYTE panel (Homo sapiens, UniProt O96013) (O96013 whole entry): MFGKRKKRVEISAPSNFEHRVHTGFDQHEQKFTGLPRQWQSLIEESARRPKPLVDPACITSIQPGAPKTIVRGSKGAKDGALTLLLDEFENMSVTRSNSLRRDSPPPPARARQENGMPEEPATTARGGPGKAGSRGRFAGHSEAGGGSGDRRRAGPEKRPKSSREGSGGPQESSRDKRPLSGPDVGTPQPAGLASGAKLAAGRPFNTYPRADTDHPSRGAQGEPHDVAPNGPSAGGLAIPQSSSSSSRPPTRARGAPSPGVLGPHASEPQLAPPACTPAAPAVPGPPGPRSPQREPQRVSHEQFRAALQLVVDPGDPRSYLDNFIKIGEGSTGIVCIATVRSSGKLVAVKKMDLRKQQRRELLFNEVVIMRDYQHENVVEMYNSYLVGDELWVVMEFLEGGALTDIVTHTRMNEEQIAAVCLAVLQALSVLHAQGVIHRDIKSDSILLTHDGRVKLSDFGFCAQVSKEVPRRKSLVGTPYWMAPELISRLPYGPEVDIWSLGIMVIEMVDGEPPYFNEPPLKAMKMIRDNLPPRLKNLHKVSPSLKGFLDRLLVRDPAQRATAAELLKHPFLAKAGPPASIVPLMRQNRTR
Chain of protein kinases of the Z-LYTE panel (Homo sapiens, UniProt Q9P1W9) (Q9P1W9 whole entry): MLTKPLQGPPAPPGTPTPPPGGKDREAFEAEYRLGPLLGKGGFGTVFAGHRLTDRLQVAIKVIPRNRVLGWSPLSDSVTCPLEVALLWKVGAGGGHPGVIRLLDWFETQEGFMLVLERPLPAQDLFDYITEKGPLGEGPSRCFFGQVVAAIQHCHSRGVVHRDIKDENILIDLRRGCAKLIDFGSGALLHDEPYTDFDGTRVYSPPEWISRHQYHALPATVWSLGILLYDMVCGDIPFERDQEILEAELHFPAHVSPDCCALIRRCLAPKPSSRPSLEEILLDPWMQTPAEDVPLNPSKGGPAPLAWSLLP
Chain of protein kinases of the Z-LYTE panel (Homo sapiens, UniProt P10721) (P10721 26-976): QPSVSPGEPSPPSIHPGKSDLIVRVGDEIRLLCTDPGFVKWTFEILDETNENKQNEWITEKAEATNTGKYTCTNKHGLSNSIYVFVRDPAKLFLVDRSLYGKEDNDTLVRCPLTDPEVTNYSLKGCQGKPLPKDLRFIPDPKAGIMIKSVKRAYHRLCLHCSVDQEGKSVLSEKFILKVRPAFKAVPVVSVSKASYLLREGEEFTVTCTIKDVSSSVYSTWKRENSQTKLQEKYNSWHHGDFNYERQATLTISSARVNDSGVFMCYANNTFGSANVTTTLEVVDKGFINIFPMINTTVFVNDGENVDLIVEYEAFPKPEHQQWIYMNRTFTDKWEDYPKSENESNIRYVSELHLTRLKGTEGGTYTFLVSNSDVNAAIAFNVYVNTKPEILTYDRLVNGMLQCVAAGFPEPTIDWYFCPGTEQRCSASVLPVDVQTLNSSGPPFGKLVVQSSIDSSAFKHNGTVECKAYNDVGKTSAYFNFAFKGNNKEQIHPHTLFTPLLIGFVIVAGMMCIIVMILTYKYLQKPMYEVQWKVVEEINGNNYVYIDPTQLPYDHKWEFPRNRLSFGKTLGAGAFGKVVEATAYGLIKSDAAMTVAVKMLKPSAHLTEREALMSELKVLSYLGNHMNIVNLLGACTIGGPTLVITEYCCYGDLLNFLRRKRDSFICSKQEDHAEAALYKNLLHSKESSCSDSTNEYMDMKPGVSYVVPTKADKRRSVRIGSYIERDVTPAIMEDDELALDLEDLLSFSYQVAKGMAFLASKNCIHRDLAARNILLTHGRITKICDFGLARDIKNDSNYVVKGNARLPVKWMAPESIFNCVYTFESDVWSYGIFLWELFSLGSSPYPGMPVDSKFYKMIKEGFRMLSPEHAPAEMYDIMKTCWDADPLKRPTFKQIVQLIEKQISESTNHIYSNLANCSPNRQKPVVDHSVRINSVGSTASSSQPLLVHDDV
Chain of protein kinases of the Z-LYTE panel (Homo sapiens, UniProt Q04759) (Q04759 whole entry): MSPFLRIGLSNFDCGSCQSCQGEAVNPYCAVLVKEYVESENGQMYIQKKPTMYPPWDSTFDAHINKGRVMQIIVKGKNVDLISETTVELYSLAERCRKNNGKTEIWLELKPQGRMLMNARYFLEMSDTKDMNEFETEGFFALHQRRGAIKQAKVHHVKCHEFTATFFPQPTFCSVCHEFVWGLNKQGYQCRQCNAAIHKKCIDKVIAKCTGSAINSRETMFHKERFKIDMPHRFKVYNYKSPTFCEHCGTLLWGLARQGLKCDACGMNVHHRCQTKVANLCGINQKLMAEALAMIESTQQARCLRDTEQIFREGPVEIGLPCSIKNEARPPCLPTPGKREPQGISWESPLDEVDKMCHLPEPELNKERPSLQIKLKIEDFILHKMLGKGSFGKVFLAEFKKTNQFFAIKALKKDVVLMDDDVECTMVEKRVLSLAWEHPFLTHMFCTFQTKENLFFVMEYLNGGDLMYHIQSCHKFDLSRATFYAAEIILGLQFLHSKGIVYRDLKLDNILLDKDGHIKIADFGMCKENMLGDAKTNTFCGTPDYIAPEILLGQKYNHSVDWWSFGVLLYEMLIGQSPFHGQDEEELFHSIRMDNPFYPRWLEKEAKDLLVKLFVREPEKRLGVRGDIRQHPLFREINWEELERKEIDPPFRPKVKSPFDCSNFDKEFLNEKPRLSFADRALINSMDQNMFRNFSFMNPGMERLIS
Chain of protein kinases of the Z-LYTE panel (Homo sapiens, UniProt P07948) (P07948 whole entry): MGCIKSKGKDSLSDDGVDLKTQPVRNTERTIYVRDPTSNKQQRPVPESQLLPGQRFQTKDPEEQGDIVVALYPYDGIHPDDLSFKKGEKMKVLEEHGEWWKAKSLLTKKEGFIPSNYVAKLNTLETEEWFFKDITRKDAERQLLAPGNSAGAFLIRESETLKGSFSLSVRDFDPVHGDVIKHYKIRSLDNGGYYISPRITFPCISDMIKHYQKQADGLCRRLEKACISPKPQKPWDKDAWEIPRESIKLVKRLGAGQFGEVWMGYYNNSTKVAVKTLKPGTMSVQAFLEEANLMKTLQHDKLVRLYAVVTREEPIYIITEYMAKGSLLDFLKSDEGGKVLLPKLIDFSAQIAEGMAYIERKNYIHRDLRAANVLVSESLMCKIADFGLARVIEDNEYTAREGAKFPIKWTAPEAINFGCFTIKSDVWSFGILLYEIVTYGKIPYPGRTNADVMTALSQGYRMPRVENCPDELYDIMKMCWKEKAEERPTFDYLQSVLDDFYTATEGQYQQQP
Chain of protein kinases of the Z-LYTE panel (Homo sapiens, UniProt P49840) (P49840 whole entry): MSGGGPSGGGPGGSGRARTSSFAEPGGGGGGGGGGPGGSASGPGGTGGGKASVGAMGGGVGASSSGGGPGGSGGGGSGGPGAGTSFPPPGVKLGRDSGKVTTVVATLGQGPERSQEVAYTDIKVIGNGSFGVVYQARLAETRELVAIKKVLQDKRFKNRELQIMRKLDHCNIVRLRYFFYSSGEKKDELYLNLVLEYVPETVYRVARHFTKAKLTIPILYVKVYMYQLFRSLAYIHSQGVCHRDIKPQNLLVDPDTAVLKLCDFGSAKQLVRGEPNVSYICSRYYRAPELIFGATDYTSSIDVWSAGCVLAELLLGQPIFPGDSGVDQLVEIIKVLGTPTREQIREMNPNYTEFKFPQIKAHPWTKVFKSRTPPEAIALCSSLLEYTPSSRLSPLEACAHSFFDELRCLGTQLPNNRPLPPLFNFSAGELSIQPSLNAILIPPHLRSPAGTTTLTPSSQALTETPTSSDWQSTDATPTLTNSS
Chain of protein kinases of the Z-LYTE panel (Homo sapiens, UniProt Q16620) (Q16620 32-822): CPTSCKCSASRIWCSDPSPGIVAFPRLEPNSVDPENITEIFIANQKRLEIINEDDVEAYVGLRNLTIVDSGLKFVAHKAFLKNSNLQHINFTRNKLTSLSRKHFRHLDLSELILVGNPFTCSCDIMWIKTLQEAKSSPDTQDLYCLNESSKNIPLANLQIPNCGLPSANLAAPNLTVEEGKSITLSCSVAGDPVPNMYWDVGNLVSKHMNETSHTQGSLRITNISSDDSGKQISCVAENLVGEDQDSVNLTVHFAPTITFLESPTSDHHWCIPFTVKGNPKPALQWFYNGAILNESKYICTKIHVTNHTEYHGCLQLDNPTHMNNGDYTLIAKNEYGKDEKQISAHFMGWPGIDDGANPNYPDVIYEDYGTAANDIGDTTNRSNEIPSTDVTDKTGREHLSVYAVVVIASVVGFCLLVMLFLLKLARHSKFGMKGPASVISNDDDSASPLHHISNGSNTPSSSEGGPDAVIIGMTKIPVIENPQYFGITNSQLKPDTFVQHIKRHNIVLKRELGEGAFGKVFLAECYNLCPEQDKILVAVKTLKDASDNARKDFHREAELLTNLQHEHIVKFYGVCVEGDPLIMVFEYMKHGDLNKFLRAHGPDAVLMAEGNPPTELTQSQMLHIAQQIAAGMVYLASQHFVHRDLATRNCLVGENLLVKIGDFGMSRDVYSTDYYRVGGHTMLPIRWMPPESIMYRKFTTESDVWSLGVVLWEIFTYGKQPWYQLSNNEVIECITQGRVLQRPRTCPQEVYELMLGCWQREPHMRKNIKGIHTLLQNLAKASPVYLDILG

CCN1CCN(c2ccc(Nc3cc(Nc4cccc5c4N(C(C)=O)CC5)ccn3)cc2)CC1 [Compound 1938]
inhibition at 1 µM ([1]; read-out: % Inhibition Point 1): 1.58%
inhibition at 1 µM ([1]; read-out: % Inhibition Point 2): 0.0356%
inhibition at 1 µM ([1]; read-out: % Inhibition mean): 0.807%
inhibition at 1 µM ([2]; read-out: % Inhibition Point 1): -3.77%
inhibition at 1 µM ([2]; read-out: % Inhibition Point 2): -2.13%
inhibition at 1 µM ([2]; read-out: % Inhibition mean): -3%
inhibition at 1 µM ([3]; read-out: % Inhibition Point 1): 6.51%
inhibition at 1 µM ([3]; read-out: % Inhibition Point 2): 5%
inhibition at 1 µM ([3]; read-out: % Inhibition mean): 5.64%
inhibition at 1 µM ([4]; read-out: % Inhibition Point 1): 11%
inhibition at 1 µM ([4]; read-out: % Inhibition Point 2): 9%
inhibition at 1 µM ([4]; read-out: % Inhibition mean): 10%
inhibition at 1 µM ([5]; read-out: % Inhibition Point 1): 6.43%
inhibition at 1 µM ([5]; read-out: % Inhibition Point 2): 8%
inhibition at 1 µM ([5]; read-out: % Inhibition mean): 7%
inhibition at 1 µM ([6]; read-out: % Inhibition Point 1): 13%
inhibition at 1 µM ([6]; read-out: % Inhibition Point 2): 12%
inhibition at 1 µM ([6]; read-out: % Inhibition mean): 13%
inhibition at 1 µM ([7]; read-out: % Inhibition Point 1): 0.632%
inhibition at 1 µM ([7]; read-out: % Inhibition Point 2): 0.0257%
inhibition at 1 µM ([7]; read-out: % Inhibition mean): 0.329%
inhibition at 1 µM ([8]; read-out: % Inhibition Point 1): 16%
inhibition at 1 µM ([8]; read-out: % Inhibition Point 2): 6.35%
inhibition at 1 µM ([8]; read-out: % Inhibition mean): 11%
inhibition at 1 µM ([9]; read-out: % Inhibition Point 1): 19%
inhibition at 1 µM ([9]; read-out: % Inhibition Point 2): 25%
inhibition at 1 µM ([9]; read-out: % Inhibition mean): 22%
inhibition at 1 µM ([10]; read-out: % Inhibition Point 1): 12%
inhibition at 1 µM ([10]; read-out: % Inhibition Point 2): 6.62%
inhibition at 1 µM ([10]; read-out: % Inhibition mean): 9%
inhibition at 1 µM ([11]; read-out: % Inhibition Point 1): 8%
inhibition at 1 µM ([11]; read-out: % Inhibition Point 2): 8.5%
inhibition at 1 µM ([11]; read-out: % Inhibition mean): 8%
inhibition at 1 µM ([12]; read-out: % Inhibition Point 1): 7.5%
inhibition at 1 µM ([12]; read-out: % Inhibition Point 2): 6%
inhibition at 1 µM ([12]; read-out: % Inhibition mean): 6.66%
inhibition at 1 µM ([13]; read-out: % Inhibition Point 1): 2%
inhibition at 1 µM ([13]; read-out: % Inhibition Point 2): 0.0719%
inhibition at 1 µM ([13]; read-out: % Inhibition mean): 1%
